The source of these data is ChEMBL document CHEMBL5346860, “Cancer multidrug-resistance reversal by ABCB1 inhibition: A recent update” (Eur J Med Chem, 2022).

A value given as a limit tells only on which side of the number the result lay.

Data set [1] can be described thus: cells. To be noted: Homo sapiens, KBVIN, 72 h.
Description: Antiproliferative activity against multidrug-resistant human KB-VIN cells assessed as cell growth inhibition incubated for 72 hrs by SRB assay
Data set [2] can be described thus: Antiproliferative activity against human Flp-In-293 cells expressing ABCB1 assessed as cell growth inhibition incubated for 72 hrs by SRB assay. It is filed as toxicity, cell-based.
For another data set, the system named is HeLa S3. As to the kind of experiment: cells. To be noted: Homo sapiens, HeLa S3, 72 h.
Data set [3] has as its target T1, ATP-dependent translocase ABCB1 (Homo sapiens, UniProt P08183). Description: Inhibition of ABCB1 in human HEK293 cells. The format is cell-based.
A short description of data set [4]: cells. To be noted: Homo sapiens, EPP85-181RDB, 72 h.
Description: Antiproliferative activity against daunorubicin-resistant human EPP85-181 cells incubated for 72 hrs by annexin-V-PI staining based flow cytometry
A short description of data set [5]: Antiproliferative activity against daunorubicin-resistant human EPG85-257 cells incubated for 72 hrs by annexin-V-PI staining based flow cytometry. The format is functional, EPG85-257RDB.
Data set [6] has as its target T1, ATP-dependent translocase ABCB1. Description: Inhibition of ABCB1 in human HEK293 cells in the presence of doxorubicin. The format is cell-based.
A short description of data set [7]: Reversal of drug resistance in paclitaxel-resistant human TOV-21G cells assessed as fold change in paclitaxel IC50 in presence of paclitaxel. It is filed as functional, paclitaxel-resistant human TOV-21G cell.
A short description of data set [8]: Reversal of drug resistance in paclitaxel-resistant human OVCAR-3 cells assessed as fold decrease in paclitaxel IC50 in presence of paclitaxel. It is filed as functional, paclitaxel-resistant human OVCAR-3 cell.
Data set [9] has as its target T1, ATP-dependent translocase ABCB1. Description: Inhibition of ABCB1 in multi-drug resistance human HL-60 cells assessed as increase in daunorubicin accumulation. It is filed as cell-based.
Data set [10] can be described thus: Antiproliferative activity against human BJ cells assessed as inhibition of cell survival by MTT assay. The format is toxicity, cell-based. To be noted: read-out: LC50 (the source's name).
The test system of a further data set is U-937. As to the kind of experiment: Antiproliferative activity against human U-937 cells assessed as inhibition of cell survival by MTT assay. It is filed as functional. To be noted: read-out: LC50 (the source's name).
Data set [11] can be described thus: Antiproliferative activity against human HaCaT cells assessed as inhibition of cell survival by MTT assay. The format is toxicity, cell-based. To be noted: read-out: LC50 (the source's name).
The subject of the next data set is SH-SY5Y. As to the kind of experiment: Antiproliferative activity against human SH-SY5Y cells assessed as inhibition of cell survival by MTT assay. The format is functional. To be noted: read-out: LC50 (the source's name).
Another data set has as its system HL-60. As to the kind of experiment: Antiproliferative activity against human HL-60 cells assessed as inhibition of cell survival by MTT assay. The format is functional. To be noted: read-out: LC50 (the source's name).
In a further data set the test system is HEK293. As to the kind of experiment: Antiproliferative activity against human HEK293 cells assessed as inhibition of cell survival by MTT assay. The following applies: read-out: LC50 (the source's name). It is filed as functional.
Data set [12] has as its system A2780/Taxol. As to the kind of experiment: Potentiation of paclitaxel induced antiproliferative activity against human A2780/Taxol cells overexpressing ABCB1 assessed as fold reduction in paclitaxel IC50 by MTT assay relative to control. It is filed as functional.
The test system of data set [13] is A2780/Taxol. As to the kind of experiment: Antiproliferative activity against human A2780/Taxol cells overexpressing ABCB1 assessed as cell growth inhibition by MTT assay. It is filed as functional, cell-based.
Data set [14] deals with A549/TR. As to the kind of experiment: Antiproliferative activity against human A549/Taxol cells overexpressing ABCB1 assessed as cell growth inhibition by MTT assay. The format is functional, cell-based.
For data set [15], the system named is A549/TR. Description: Potentiation of paclitaxel induced antiproliferative activity against human A549/Taxol cells overexpressing ABCB1 assessed as fold reduction in paclitaxel IC50 by MTT assay relative to control.
The subject of the next data set is 4T1. As to the kind of experiment: Antitumor activity against mouse 4T1 cells implanted in Balb/c mouse assessed as tumor growth inhibition at 4 mg/kg administered once for every two days measured after 15 days by immunohistochemical analysis relative to control. To be noted: 4T1, 360 h, time 15 day. The format is functional.
A further data set relates to ADR5000 cell line. Description: Antitumor activity against human CEM/ADR5000 cells assessed as fold increase in doxorubicin accumulation. The format is functional.

T1 sequence (P08183 whole entry): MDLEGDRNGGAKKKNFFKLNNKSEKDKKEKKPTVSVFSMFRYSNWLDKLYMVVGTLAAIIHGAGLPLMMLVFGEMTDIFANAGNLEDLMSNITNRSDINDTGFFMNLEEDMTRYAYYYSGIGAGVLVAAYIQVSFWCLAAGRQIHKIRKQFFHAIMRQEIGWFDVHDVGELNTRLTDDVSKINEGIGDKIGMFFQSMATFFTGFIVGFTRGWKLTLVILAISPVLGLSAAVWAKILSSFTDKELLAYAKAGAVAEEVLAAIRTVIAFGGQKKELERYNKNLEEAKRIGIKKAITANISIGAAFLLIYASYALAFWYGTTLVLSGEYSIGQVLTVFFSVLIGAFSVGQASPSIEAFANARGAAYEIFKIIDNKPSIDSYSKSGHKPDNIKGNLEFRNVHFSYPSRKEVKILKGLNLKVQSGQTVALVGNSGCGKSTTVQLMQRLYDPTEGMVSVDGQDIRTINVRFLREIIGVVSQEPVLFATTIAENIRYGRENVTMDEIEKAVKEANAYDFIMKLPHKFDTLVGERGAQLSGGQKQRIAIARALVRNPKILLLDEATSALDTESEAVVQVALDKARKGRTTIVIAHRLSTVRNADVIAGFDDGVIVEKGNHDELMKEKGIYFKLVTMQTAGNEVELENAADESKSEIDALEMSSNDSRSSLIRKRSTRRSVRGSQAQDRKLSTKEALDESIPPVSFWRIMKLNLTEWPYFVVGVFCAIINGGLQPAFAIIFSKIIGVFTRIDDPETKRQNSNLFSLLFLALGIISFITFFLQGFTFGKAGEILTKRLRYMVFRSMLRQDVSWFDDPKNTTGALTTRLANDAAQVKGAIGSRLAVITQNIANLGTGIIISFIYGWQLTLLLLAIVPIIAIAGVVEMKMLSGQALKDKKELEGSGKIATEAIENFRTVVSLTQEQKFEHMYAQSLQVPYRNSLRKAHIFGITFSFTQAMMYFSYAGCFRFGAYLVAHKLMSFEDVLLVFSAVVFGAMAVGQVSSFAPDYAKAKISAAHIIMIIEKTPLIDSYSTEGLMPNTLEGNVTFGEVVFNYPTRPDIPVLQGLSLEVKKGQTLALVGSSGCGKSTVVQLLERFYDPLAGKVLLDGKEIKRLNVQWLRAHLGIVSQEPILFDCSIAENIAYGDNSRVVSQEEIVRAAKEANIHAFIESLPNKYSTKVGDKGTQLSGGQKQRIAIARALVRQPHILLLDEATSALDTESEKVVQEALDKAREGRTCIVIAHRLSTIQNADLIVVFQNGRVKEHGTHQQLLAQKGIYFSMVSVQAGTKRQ
Description for HeLa S3: Antiproliferative activity against drug-sensitive human HeLaS3 cells assessed as cell growth inhibition incubated for 72 hrs by SRB assay

`COc1cccc2c1C(=O)c1c(O)c3c(c(O)c1C2=O)C[C@@](O)(C(=O)CO)C[C@@H]3O[C@H]1C[C@H](N)[C@H](O)[C@H](C)O1` [DOXORUBICIN]: the results for the half-maximal inhibitory concentration (IC50) (in the data set “cells [1]”; in the data set with HeLa S3; in [3]) were less than 40 µM, less than 40 µM and 504 nM, respectively. Also, in data set [2], the IC50 at 72 h was less than 40 µM.

With `COc1cc([C@@H]2c3cc4c(cc3[C@@H](O[C@@H]3O[C@@H]5CO[C@@H](C)O[C@H]5[C@H](O)[C@H]3O)[C@H]3COC(=O)[C@H]23)OCO4)cc(OC)c1O` [ETOPOSIDE], in “cells [4]”, the IC50 was found to be 62 µM. This molecule came in with an IC5 in data set [5] of 6.2 µM.

With `COc1ccc2cc1Oc1ccc(cc1)C[C@H]1c3cc(c(OC)cc3CCN1C)Oc1c(OC)c(OC)c(OC)c3c1[C@H](C2)N(C)CC3` [HERNANDEZINE], the IC50 in [6] turned out to be 25 nM.

In the case of `CS(=O)(=O)CCNCc1ccc(-c2ccc3ncnc(Nc4ccc(OCc5cccc(F)c5)c(Cl)c4)c3c2)o1` [LAPATINIB], the “fold change (FC)” value in data set [7] turned out to be 20.7; in data set [8], 6.2.

As to `CO[C@@H]1[C@H](N(C)C(=O)c2ccccc2)C[C@H]2O[C@]1(C)n1c3ccccc3c3c4c(c5c6ccccc6n2c5c31)C(=O)NC4` [MIDOSTAURIN], the IC50 in data set [9] is 68 nM.

With `Cc1cn(-c2cc(NC(=O)c3ccc(C)c(Nc4nccc(-c5cccnc5)n4)c3)cc(C(F)(F)F)c2)cn1` [NILOTINIB], the CC50 in [10] was determined as 5.6 µM; in the data set with U-937, 2300 nM; in [11] it was 3.9 µM; with SH-SY5Y it was 4.2 µM; in the data set with HL-60, 1700 nM; with HEK293, 5.9 µM.

As to `COc1ccc(-c2cc(=O)c3c(OC)c(OC)c(OC)c(OC)c3o2)cc1OC` [NOBILETIN], the “fold change (FC)” value in the data set with A2780/Taxol [12] and with A549/TR [15] was 15.92 in each case. Moreover, the IC50 in the data set on A2780/Taxol [13] and in the data set on A549/TR [14] was 9 µM in each case.

`CC(=O)O[C@H]1C(=O)[C@@]2(C)[C@H]([C@H](OC(=O)c3ccccc3)[C@]3(O)C[C@H](OC(=O)[C@H](O)[C@@H](NC(=O)c4ccccc4)c4ccccc4)C(C)=C1C3(C)C)[C@]1(OC(C)=O)CO[C@@H]1C[C@@H]2O` [PACLITAXEL]: the half-maximal inhibitory concentration (IC50) in the data set “cells [1]” and with HeLa S3 was less than 40 µM in each case. Also, in [2], the concentration for half-maximal inhibition (IC50) at 72 h was less than 40 µM.

For `C=CC(=O)N1CCC(Oc2cc3c(Nc4ccc(Cl)c(Cl)c4F)ncnc3cc2OC)CC1` [POZIOTINIB], the “fold change (FC)” value is 20.7 in data set [7] and 6.2 in data set [8].

Regarding `CC(=O)O[C@@H]1C[C@H](O)[C@@]23CO[C@@H](O)[C@]1(C)[C@@H]2C[C@@H](O)[C@]1(C)[C@@H]3C(=O)[C@H](OC(C)=O)[C@@]2(C)[C@H](c3ccoc3)C[C@H]3O[C@]321` [TOOSENDANIN], in the data set with 4T1, the inhibition in vivo at 4 mg/kg was determined as 90%.

Take `COc1ccc(CCN(C)CCCC(C#N)(c2ccc(OC)c(OC)c2)C(C)C)cc1OC` (stereo not given) [VERAPAMIL]: the “fold change (FC)” value in the data set with ADR5000 cell line amounted to 4.7.

As for `CC[C@]1(O)C[C@H]2CN(CCc3c([nH]c4ccccc34)[C@@](C(=O)OC)(c3cc4c(cc3OC)N(C=O)[C@H]3[C@@](O)(C(=O)OC)[C@H](OC(C)=O)[C@]5(CC)C=CCN6CC[C@]43[C@@H]65)C2)C1` [VINCRISTINE], the 50% inhibitory concentration (IC50) in the data set “cells [1]” and in the data set with HeLa S3 was less than 40 µM in each case. In addition, the IC50 at 72 h in [2] is less than 40 µM.
